Where a chain is given by its changes, count along the chain named. Where two headings read alike, the source gives them in different places.

The target in one experiment is RET kinase V804M (Homo sapiens, UniProt P07949, V804M). Nature of the experiment: RET Enzyme Assay (CisBio HTRF KinEASE-TK), V804M. It is filed as biochemical. Particulars: read-out: RET V804M Enz FRET IC50. For orientation: TR-FRET usually uses a lanthanide donor and a delayed reading to cut background.
The target in experiment [1] is T1, RET kinase Wild Type (Homo sapiens, UniProt P07949).
Experiment [2] has as its target T2, G810R mutant RET kinase (Homo sapiens, UniProt P07949, G810R).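 Further: HTRF KinEASE-TK enzymatic assay with 1 nM recombinant RET G810R, 1 h at 22 °C, dual-wavelength ratiometric readout, 100% control without compound, 0% from pre-quenched reactions.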
The target in experiment [3] is T3, G810S mutant RET kinase (Homo sapiens, UniProt P07949, G810S).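 Further: HTRF KinEASE-TK kinase assay with recombinant enzyme, 1 h at 22 °C, dual-wavelength ratiometric read-out, percent of control (DMSO-only = 100, pre-quenched reaction = 0).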
Procedure: (§2) The potency of compounds inhibiting several different RET kinase forms (Wild Type, V804M, G810R, & G810S) were determined using CisBio's HTRF® KinEASE™-TK assay technology. […] After a 1 hour incubation at 22° C., the extent of reaction was determined using a PerkinElmer EnVision multimode plate reader via HTRF dual wavelength detection, and the percent of control (POC) was calculated using a ratiometric emission factor. One hundred POC was determined using DMSO only samples (no compound present), and 0 POC was determined using pre-quenched control reactions.
(§3) The potency of a compound inhibiting G810R or G810S mutant RET kinase was determined using CisBio's HTRF® KinEASE™-TK assay technology. The assays contained G810R or G810S mutant RET produced at Array Biopharma, Inc. (1 nM enzyme). […] After a 1-h incubation at 22° C., the extent of reaction was determined using a PerkinElmer EnVision multimode plate reader via HTRF dual wavelength detection, and the percent of control (POC) was calculated using a ratiometric emission factor. One hundred POC was determined using no test compounds, and 0 POC was determined using pre-quenched control reactions.
Experiment [4] addresses T4, HEK-293 cells expressing a Kif5b-RET fusion protein (Homo sapiens, UniProt P07949).
T4 construct: KIF5B (N-terminal portion incl. coiled-coil); expressed in transfected cells; host or cells: HEK-293; the other entry of the earlier key: KIF5B (P33176, Kinesin-1 heavy chain)
T4 sequence (P07949 713-1063 limits assumed): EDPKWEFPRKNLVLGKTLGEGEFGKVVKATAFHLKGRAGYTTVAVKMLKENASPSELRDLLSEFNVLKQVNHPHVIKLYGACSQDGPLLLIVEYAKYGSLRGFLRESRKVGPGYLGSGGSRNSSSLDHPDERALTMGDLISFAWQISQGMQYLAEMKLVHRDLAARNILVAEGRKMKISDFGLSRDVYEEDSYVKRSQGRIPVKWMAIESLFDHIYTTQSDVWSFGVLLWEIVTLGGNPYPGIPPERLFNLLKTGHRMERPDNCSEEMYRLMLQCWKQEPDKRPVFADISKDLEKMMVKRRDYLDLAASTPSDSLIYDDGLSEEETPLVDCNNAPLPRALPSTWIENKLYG
As to the kind of experiment: RET Cell Assay (phospho-RET Tyr1062). It is filed as cell-based. Particulars: HEK-293 Kif5b-RET, 1 hour incubation, phospho-RET normalized to GAPDH; read-out: KIF5B-RET pTYR1062 Cell IC50. Summed up:
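Phospho-RET (Tyr1062) to GAPDH ratio read by in-cell fluorescent immunodetection after 1 hour compound exposure in DMEM, 0.5% DMSO. Cells: HEK-293 carrying Kif5b-RET fusion. POC data fit to a 4-parameter logistic curve, IC50 taken at 50 POC.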

For experiment [5], the target named is T5, HEK-293 cells expressing a G810R mutant RET Kif5b-RET fusion protein (Homo sapiens, UniProt P07949, G810R).
T5 construct: KIF5B (N-terminal portion incl. coiled-coil); expressed in transfected cells; host or cells: HEK-293; the other entry of the earlier key: KIF5B (P33176, Kinesin-1 heavy chain)
T5 sequence (P07949 713-1063 G810R limits assumed): T4 sequence (P07949 713-1063 limits assumed) with G98R
As to the kind of experiment: RET G810R Mutant Cell Assay (phospho-RET Tyr1062). The format is cell-based. The note with it: HEK-293 Kif5b-RET G810R, 1 hour incubation, phospho-RET normalized to GAPDH. In a few lines:
(§1)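 Signals came from in-cell immunostaining of fixed, methanol-permeabilized HEK-293 fusion-expressing cells exposed 1 h to compound in DMEM with 0.5% DMSO.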

For experiment [6], the target named is T6, HEK-293 cells expressing a G810S mutant RET Kif5b-RET fusion protein (Homo sapiens, UniProt P07949, G810S).
T6 construct: KIF5B (N-terminal portion incl. coiled-coil); expressed in transfected cells; host or cells: HEK-293
T6 sequence (P07949 713-1063 G810S limits assumed): T4 sequence (P07949 713-1063 limits assumed) with G98S
As to the kind of experiment: RET G810S Mutant Cell Assay (phospho-RET Tyr1062). It is filed as cell-based. Particulars: HEK-293 Kif5b-RET G810S, 1 hour incubation, phospho-RET normalized to GAPDH. Summed up: as §1

Experiment [7] has as its target T1, RET kinase Wild Type. Nature of the experiment: biochemical.
Experiment [8] deals with T2, G810R mutant RET kinase. As to the kind of experiment: biochemical.
Experiment [9] deals with T3, G810S mutant RET kinase. Nature of the experiment: biochemical.
Procedure: as §2, §3
Setting [10] is: V804M RET, 1 mM ATP, averaged IC50.

Sequence of RET kinase V804M (P07949 29-1114 V804M): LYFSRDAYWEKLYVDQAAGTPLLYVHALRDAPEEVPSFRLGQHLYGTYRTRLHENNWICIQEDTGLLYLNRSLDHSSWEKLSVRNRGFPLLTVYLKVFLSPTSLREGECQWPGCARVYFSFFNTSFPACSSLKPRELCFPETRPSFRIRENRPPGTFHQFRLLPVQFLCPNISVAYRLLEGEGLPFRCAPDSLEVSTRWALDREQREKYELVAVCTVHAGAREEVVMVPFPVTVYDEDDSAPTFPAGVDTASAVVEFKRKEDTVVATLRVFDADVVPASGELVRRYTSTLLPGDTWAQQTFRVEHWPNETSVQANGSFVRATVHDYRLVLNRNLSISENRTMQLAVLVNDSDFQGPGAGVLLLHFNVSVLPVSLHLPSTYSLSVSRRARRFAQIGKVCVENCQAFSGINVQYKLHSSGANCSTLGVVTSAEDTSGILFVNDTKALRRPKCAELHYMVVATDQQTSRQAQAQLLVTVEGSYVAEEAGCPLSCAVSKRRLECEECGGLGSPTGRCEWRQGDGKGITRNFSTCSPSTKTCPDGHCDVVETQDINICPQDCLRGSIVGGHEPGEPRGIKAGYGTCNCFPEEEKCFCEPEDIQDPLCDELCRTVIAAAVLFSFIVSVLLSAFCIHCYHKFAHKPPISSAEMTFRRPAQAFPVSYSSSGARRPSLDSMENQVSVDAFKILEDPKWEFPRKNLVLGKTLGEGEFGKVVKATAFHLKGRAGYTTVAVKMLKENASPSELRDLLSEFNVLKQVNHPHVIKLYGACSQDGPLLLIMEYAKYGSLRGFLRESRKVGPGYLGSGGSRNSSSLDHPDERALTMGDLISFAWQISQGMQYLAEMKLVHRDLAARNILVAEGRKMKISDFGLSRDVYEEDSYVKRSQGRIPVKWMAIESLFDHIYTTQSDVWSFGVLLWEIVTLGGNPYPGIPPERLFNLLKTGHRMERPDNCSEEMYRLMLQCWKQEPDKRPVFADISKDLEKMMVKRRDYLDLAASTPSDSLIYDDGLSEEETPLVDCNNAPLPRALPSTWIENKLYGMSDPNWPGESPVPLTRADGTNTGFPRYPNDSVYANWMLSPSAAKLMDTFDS
T2 sequence (P07949 29-1114 G810R): as the sequence (P07949 29-1114 V804M) above, with M776V, G782R counted along it
T3 sequence (P07949 29-1114 G810S): as the sequence (P07949 29-1114 V804M) above, with M776V, G782S counted along it
T1 sequence (P07949 29-1114): as the sequence (P07949 29-1114 V804M) above, with M776V counted along it
Procedure for RET kinase V804M: as §2

The IC50 is the concentration that gives 50% inhibition. As for `Nc1ncnc2c1c1c(n2C2CCNC2)CCC(O)c2c-1noc2C1CC1` (stereo not drawn) [Example 132, (Cis)-11-amino-3-cyclopropyl-7-(pyrrolidin-3-yl)-4,5,6,7-tetrahydroisoxazolo[4″,3″:6′,7]cyclohepta[1′,2′:4,5]pyrrolo[2,3-d]pyrimidin-4-ol 2,2,2-trifluoroacetate], the IC50 on RET kinase V804M (setting [10]) stood at 1940 nM; against RET kinase Wild Type [1] it was 1710 nM; on G810R mutant RET kinase [2], 4460 nM; against G810S mutant RET kinase [3], 2320 nM.
Taken in the same sequence, the figures for `COC(=O)[C@H]1C[C@H](n2c3c(c4c(N)ncnc42)-c2noc(C4CC4)c2C(=O)CC3)C1` [Example 142, Methyl (1r,3r)-3-(11-amino-3-cyclopropyl-4-oxo-5,6-dihydroisoxazolo[4″,3″:6′,7′]cyclohepta[1′,2′:4,5]pyrrolo[2,3-d]pyrimidin-7(4H)-yl)cyclobutane-1-carboxylate] were 505 nM, 124 nM, 157 nM and 425 nM.
For `Nc1ncnc2c1c1c(n2C2CCNC2)CCC(O)c2c-1noc2C1CC1` (stereo not drawn) [Example 133, (Trans)-11-amino-3-cyclopropyl-7-(pyrrolidin-3-yl)-4,5,6,7-tetrahydroisoxazolo[4″,3″:6′,7′]cyclohepta[1′,2′:4,5]pyrrolo[2,3-d]pyrimidin-4-ol 2,2,2-trifluoroacetate], the IC50 at RET kinase V804M (setting [10]) worked out at 6200 nM; against RET kinase Wild Type [1], 2640 nM; against G810R mutant RET kinase [2], 6140 nM; against G810S mutant RET kinase [3], 3400 nM.
`CC(C)n1c2c(c3c(N)ncnc31)-c1noc(C3CC3)c1[C@@H](O)[C@H](C)C2` (relative stereo) [Example 62, (Trans)-11-amino-3-cyclopropyl-7-isopropyl-5-methyl-4,5,6,7-tetrahydroisoxazolo[4″,3″:6′,7′]cyclohepta[1′,2′:4,5]pyrrolo[2,3-d]pyrimidin-4-ol]: the IC50 at RET kinase V804M was found to be 138 nM; in experiment [4], 52 nM; in experiment [5], 349 nM; in [6], 192 nM; at RET kinase Wild Type [7] it was 34 nM; on G810R mutant RET kinase [8] it was 96 nM. For the same compound, at G810S mutant RET kinase [9], the IC50 was determined as 74 nM.
As to `C[C@H](n1c2c(c3c(N)ncnc31)-c1noc(C3CC3)c1[C@H](O)CC2)C(F)(F)F` (single isomer, unassigned) [Example 145], the IC50 is 31 nM on RET kinase V804M (setting [10]); 73 nM in [4]; 120 nM in experiment [5]; 20 nM at RET kinase Wild Type [1]; 85 nM at G810R mutant RET kinase [2]; 101 nM against G810S mutant RET kinase [3].
`CC(C)n1c2c(c3c(N)ncnc31)-c1noc(C3CC3)c1S(=O)(=O)CC2` [Example 23, 11-amino-3-cyclopropyl-7-isopropyl-6,7-dihydro-5H-isoxazolo[4″,3″:2′,3′]thiepino[4′,5′:4,5]pyrrolo[2,3-d]pyrimidine 4,4-dioxide 2,2,2-trifluoroacetate]: the IC50 was found to be 189 nM at RET kinase V804M; 20 nM in experiment [4]; 133 nM in [5]; 107 nM in experiment [6]; 18 nM against RET kinase Wild Type [7]; 63 nM on G810R mutant RET kinase [8]. The compound further displayed an IC50 at G810S mutant RET kinase [9] of 54 nM.

Values taken from patent US11964988B2, “Fused heterocyclic compounds as RET kinase inhibitors” (ARRAY BIOPHARMA INC., priority 2018, dated 2024).
